Results from paper PMC9745132, “Visualization of real-time receptor endocytosis in dopamine neurons enabled by NTSR1-Venus knock-in mice” (Frontiers in Cellular Neuroscience, 2022).
Where “and” joins values, the source holds several entries; their conditions need not be identical. Identical values can stand only once. Counter-ions that a name gives are not always drawn. Like-named read-outs stand apart in the source and are kept apart here. *1 amine or outer side, *2 acyl side, *3 side chain or, on linkers, in order; H or OH if unused. Where a SMILES comes first, the peptide text is derived from it. [ ]: non-standard residue; d: D form. X1 = NCCCC[C@H](N)CN([C@@H](CCCCN)C(=O)[*:2])[*:1]; Tle = CC(C)(C)[C@H](N)C(=O)O

Experiments:
[1] = target: T1, NTSR1-RlucII (Mus musculus, UniProt O88319); experiment: NTSR1-RlucII internalization ebBRET assay (NTSR1-RlucII donor, rGFP-CAAX acceptor) in HEK293 cells; type: cell-based
T1 construct: expressed in transfected cells; host or cells: HEK293 (HEK293SL)
Protocol: Cells were maintained in Dulbecco’s Modified Eagle Medium (DMEM, Wisent, Saint-Jean-Baptiste, QC, Canada) supplemented with 10% fetal bovine serum (FBS, Wisent) and 1% antibiotics [100 U/mL penicillin and 100 μg/mL streptomycin (PS); Wisent]. Cells were grown at 37°C in 5% CO2 and 90% humidity and checked for mycoplasma contamination. Two days prior to experiments, cells were trypsinized (Wisent) and 35,000 cells were transfected with 1 μg of total DNA containing the appropriate expression vectors/biosensors. The total quantity of DNA was completed at 1 μg with salmon sperm DNA (Invitrogen, Waltham, MA, USA). Transfection was performed using the transfecting agent polyethylenimine 25 kD linear (PEI; Polysciences, Warrington, PA, USA) at a ratio of 3:1 PEI/DNA. Cells were then immediately plated onto poly-ornithine (Sigma-Aldrich) coated 96-well white culture plates (PerkinElmer, Waltham, MA, USA).
Forty-eight hours post-transfection, cells were washed once with phosphate-buffered saline (PBS) then incubated 1 h at 37°C in Tyrode buffer (137 mM NaCI, 0.9 mM KCI, 1 mM MgCI2, 1 1.9 mM NaHCO3, 3.6 mM NaH2PO4, 25 mM HEPES, 5.5 mM Glucose, and 1 mM CaCI2, pH 7.4). Cells were then treated with the ligands and prior to measurement treated with the substrate (5 min with 2.5 μM Coelantarazine 400a). Bioluminescence resonance energy transfer (BRET) was then measured between RlucII (BRET energy donor) and rGFP (enhanced bystander ebBRET acceptor)–tagged proteins. BRET values were read for 1 s per well using a Mithras™ LB940 Multimode Microplate Reader (Berthold Technologies, Bad Wildbad, Germany) for concentration–response curves. ebBRET values were obtained by calculating the ratio of the light emitted by the energy acceptor over the light emitted by the energy donor (donor 410 ± 70 nm/acceptor 515 ± 20 nm). Data were collected using the MicroWin 2000 software (Berthold Technologies, Bad Wildbad, Germany). They were then fitted and analyzed in GraphPad Prism (v9.0, GraphPad Software, Inc., San Diego, CA, USA).
A decrease in BRET indicates receptor loss from the plasma membrane. […] Data are expressed as raw BRET signal (Mean ± SEM) from five independent experiments.
We set-up an enhanced bystander bioluminescence energy resonance transfer (ebBRET) assay by fusing RlucII at the NTSR1 C-tail and expressing this construct together with rGFP-CAAX in HEK293 cells (Figure 1A).

[2] = target: T2, NTSR1 (Mus musculus, UniProt O88319); experiment: Gq activation ebBRET (Gq EMTA, p63RhoGEF-RlucII / rGFP-CAAX) in HEK293 cells, untagged NTSR1; type: cell-based; settings: mean ± SEM
T2 construct: expressed in transfected cells; host or cells: HEK293 (HEK293SL)
Excerpt: (§1) The mouse coding sequence of NTSR1 was PCR amplified from pCMV6-mNTSR1 (Origene, Rockville, MD, USA) and subcloned upstream from the IRES feature with a STOP codon before IRES into pIRES (Invitrogen, Waltham, MA, USA) and pIRES-Venus vector previously described ([Hamdan et al., 2005]) resulting in expression of either untagged NTSR1 or NTSR1-Venus. […] The pIRES vector was used The rGFP-CAAX BRET and Gq GEMTA biosensors construct were generated as previously described ([Namkung et al., 2016]; [Avet et al., 2022]).
(§2) HEK293 clonal cell line (HEK293SL cells), hereafter referred as HEK293 cells, were a gift from S. Laporte (McGill University, Montreal, Quebec, Canada) and previously described ([Namkung et al., 2016]). Cells were maintained in Dulbecco’s Modified Eagle Medium (DMEM, Wisent, Saint-Jean-Baptiste, QC, Canada) supplemented with 10% fetal bovine serum (FBS, Wisent) and 1% antibiotics [100 U/mL penicillin and 100 μg/mL streptomycin (PS); Wisent]. Cells were grown at 37°C in 5% CO2 and 90% humidity and checked for mycoplasma contamination. […] The total quantity of DNA was completed at 1 μg with salmon sperm DNA (Invitrogen, Waltham, MA, USA). […]
(§3) Forty-eight hours post-transfection, cells were washed once with phosphate-buffered saline (PBS) then incubated 1 h at 37°C in Tyrode buffer (137 mM NaCI, 0.9 mM KCI, 1 mM MgCI2, 1 1.9 mM NaHCO3, 3.6 mM NaH2PO4, 25 mM HEPES, 5.5 mM Glucose, and 1 mM CaCI2, pH 7.4). […] Bioluminescence resonance energy transfer (BRET) was then measured between RlucII (BRET energy donor) and rGFP (enhanced bystander ebBRET acceptor)–tagged proteins. BRET values were read for 1 s per well using a Mithras™ LB940 Multimode Microplate Reader (Berthold Technologies, Bad Wildbad, Germany) for concentration–response curves. ebBRET values were obtained by calculating the ratio of the light emitted by the energy acceptor over the light emitted by the energy donor (donor 410 ± 70 nm/acceptor 515 ± 20 nm). […] They were then fitted and analyzed in GraphPad Prism (v9.0, GraphPad Software, Inc., San Diego, CA, USA). […]

[3] = target: T3, NTSR1-Venus (Mus musculus, UniProt O88319); experiment: Gq activation ebBRET (Gq EMTA, p63RhoGEF-RlucII / rGFP-CAAX) in HEK293 cells, Venus tagged NTSR1; type: cell-based; settings: mean ± SEM
T3 construct: monitoring endogenous NTSR1-Venus receptor endocytosis could differentiate NTSR1 agonists; endogenous in cells; host or cells: primary hippocampal neurons from homozygous NTSR1-Venus knock-in mice (C57BL/6N background)
Excerpt: as §1, §2, §3

[4] = tested on: hippocampal neurons from Ntsr1^Venus/Venus mice; experiment: Intracellular calcium release (Fluo-4) in hippocampal neurons from Ntsr1^Venus/Venus mice; type: cell-based, mouse
Protocol: To isolate hippocampal neurons, P0 pups were removed from the cage of NTSR1-Venus homozygous knock-in breeding pairs. Pups were decapitated, brains were removed dorsal side up into fresh ice-cold Hank’s balanced salt solution (HBSS; Gibco, Grand Island, NY, USA), meninges were removed, and hippocampi were dissected into Hibernate A (Gibco, Grand Island, NY, USA) on ice. Tissue dissociation was carried out with the Papain Dissociation System according to the manufacturer’s protocol (Worthington Biochemical Corporation, Lakewood, NJ, USA). Neurons were plated on Poly-D-Lysine (Sigma) coated surfaces at 100,000 cells per 12 mm coverslip (NeuVitro, Camas, WA, USA) in a 24-well plate for immunostaining or 50,000 cells per well of an 8 well chamber slide (Ibidi, Grafelfing, Germany) for calcium measurements. Plating media [Neurobasal A (Gibco, Grand Island, NY, USA), 1% FBS (Fisher Scientific), 2% B-27 (Gibco, Grand Island, NY, USA), 0.5 mM GlutaMAX (Gibco, Grand Island, NY, USA), and 1x Penicillin/Streptomycin (Invitrogen, Waltham, MA, USA)] was exchanged 1 h after plating to maintenance media (Neurobasal A, 2% B-27, 0.5 mM GlutaMAX, and 1x Penicillin/Streptomycin). Half of the volume of media was exchanged for fresh media every 3–4 days. On day in vitro (DIV) 3 Cytosine arabinoside hydrochloride (Sigma) was added to media with a final concentration of 0.1 μM to decrease glial cell proliferation.
Hippocampal neurons were grown until DIV 7. Fluo-4 NW Calcium Assay kit (Thermo Fisher) was used according to the manufacturer’s protocol. Briefly, drugs were prepared at 4 μM stock solutions in the assay buffer provided without probenecid. […] Fluorescence was imaged with a 10x objective on an (Olympus, Shinjuku City, Tokyo, Japan) IX73 microscope (Fluo-4 em. 506 nm).
Live imaging settings of Fluo-4 were as follows, 79 ms exposure, 2 s intervals for 90 cycles (180 s). […] First regions of interest (ROI) were automatically determined using the analyze particles plug in. […] Relative fluorescence is defined as F/F0 where F corresponds to the cell fluorescence and F0 to the basal fluorescence.

T3 sequence (O88319 whole entry): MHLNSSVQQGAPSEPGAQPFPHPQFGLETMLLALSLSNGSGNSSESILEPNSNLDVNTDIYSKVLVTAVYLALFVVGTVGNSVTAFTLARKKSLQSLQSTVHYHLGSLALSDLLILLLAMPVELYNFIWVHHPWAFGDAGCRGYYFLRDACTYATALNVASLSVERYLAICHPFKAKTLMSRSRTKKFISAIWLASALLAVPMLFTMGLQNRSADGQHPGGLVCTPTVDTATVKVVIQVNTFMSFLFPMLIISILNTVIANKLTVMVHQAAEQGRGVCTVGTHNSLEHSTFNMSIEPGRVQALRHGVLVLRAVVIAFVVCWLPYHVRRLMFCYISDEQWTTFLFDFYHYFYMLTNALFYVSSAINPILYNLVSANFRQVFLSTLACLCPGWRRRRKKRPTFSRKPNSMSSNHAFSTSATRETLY
T1 sequence (O88319 whole entry): as above
T2 sequence (O88319 whole entry): as above

EC50 ([1]; NTSR1-RlucII, read-out: potency to induce NTSR1 internalization): 3.07e-07 M
EC50 ([1]; given as LogEC50 (negative sign), mean ± SEM, five independent experiments, read-out: Potency [LogEC50 (M)], NTSR1-RlucII internalization (converted)): 3.07e-07 M
EC50 ([2]; given as LogEC50 (negative sign), read-out: Potency [LogEC50 (M)], Gq activation, NTSR1 (converted)): 2.81e-08 M
EC50 ([3]; given as LogEC50 (negative sign), read-out: Potency [LogEC50 (M)], Gq activation, NTSR1-Venus (converted)): 3.05e-08 M
Structure (SMILES): CCOC(=O)[C@H](CC(C)C)NC(=O)[C@@H](NC(=O)[C@H](Cc1c[nH]c2ccccc12)NC(=O)[C@@H]1CCCN1C(=O)[C@H](CCCCN)NC[C@@H](N)CCCCN)C(C)(C)C [PD149163, PD149163 tetrahydrochloride hydrate] (H-[X1]PW[Tle]L-OEt; N-terminus and C-terminus assumed)
Efficacy (Raw BRET), NTSR1-RlucII internalization ([1]; decrease in BRET = receptor loss from membrane, mean ± SEM): −0.245 Raw BRET and −0.245 ± 0.008 Raw BRET
Efficacy (Raw BRET), Gq activation, NTSR1 [2]: 0.220 Raw BRET and 0.220 ± 0.013 Raw BRET
Efficacy (Raw BRET), Gq activation, NTSR1-Venus [3]: 0.476 Raw BRET and 0.476 ± 0.009 Raw BRET
intracellular calcium peak increase ([4]; 0.1 μM): 2 fold
intracellular calcium peak increase ([4]; 1 μM): 2 fold
